According to publication PMC12226733, “Evolution of iGluR ligand specificity, polyamine regulation, and ion selectivity inferred from a placozoan epsilon receptor” (Communications Biology, 2025):
“And” between values parts separate entries of the source, which are not always exact repeats. Identical values can stand only once. Like-named read-outs stand apart in the source and are kept apart here.

Legend:
GluA2 Q607S = molecular target: T1, GluA2 Q607S (Homo sapiens, UniProt P42262, Q607S); test: outside-out patch clamp, block by intracellular spermine, HEK-293T/17 cells; assay type: biochemical;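 for Normalized conductance (Gnorm): normalized to each receptor's own maximal conductance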
T1 construct: host or cells: HEK-293T/17
T1 sequence (P42262 25-883 Q607S): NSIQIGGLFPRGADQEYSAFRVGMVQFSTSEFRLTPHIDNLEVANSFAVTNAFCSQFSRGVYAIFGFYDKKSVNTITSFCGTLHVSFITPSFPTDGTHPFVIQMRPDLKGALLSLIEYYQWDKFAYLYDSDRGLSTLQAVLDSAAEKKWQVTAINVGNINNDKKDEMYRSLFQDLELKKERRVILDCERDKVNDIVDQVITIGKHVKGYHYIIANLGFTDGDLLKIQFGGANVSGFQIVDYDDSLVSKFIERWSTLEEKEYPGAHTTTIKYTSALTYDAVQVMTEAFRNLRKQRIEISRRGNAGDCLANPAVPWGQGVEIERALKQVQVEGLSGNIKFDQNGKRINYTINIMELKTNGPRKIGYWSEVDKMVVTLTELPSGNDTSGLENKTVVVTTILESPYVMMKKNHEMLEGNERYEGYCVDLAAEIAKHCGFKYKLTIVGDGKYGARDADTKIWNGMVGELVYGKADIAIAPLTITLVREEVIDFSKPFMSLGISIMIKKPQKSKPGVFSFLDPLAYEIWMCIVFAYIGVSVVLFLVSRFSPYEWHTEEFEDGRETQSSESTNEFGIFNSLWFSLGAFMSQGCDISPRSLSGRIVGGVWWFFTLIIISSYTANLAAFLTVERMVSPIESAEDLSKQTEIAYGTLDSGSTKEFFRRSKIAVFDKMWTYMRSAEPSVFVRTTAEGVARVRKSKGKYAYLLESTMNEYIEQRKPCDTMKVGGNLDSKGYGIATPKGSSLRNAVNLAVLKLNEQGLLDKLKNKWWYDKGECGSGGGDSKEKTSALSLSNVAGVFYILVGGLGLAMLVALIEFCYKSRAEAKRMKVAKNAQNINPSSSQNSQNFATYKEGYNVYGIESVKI
Method: Parallel experiments were carried out in human GluA2 homotetramers bearing equivalent Q/R/N and +4 site mutations to compare the regulation of voltage-dependent polyamine block within the broader context of mammalian receptors. Experimental design remained the same, except for using 10 mM glutamate as the agonist used to evoke membrane currents (Fig. 7a, d, g, and j). […] Their properties were accordingly compared to wildtype GluA2(Q) co-expressed with TARP-γ2.
(§1) HEK-293T/17 cells (ATCC) were maintained in MEM supplemented with GlutaMAX and 10% fetal bovine serum (FBS) at 37 °C and 5% CO2. […] Transient transfections were carried out 48 h post-plating using the calcium phosphate precipitation method. After 6–8 hours, cells were washed twice with PBS and maintained in fresh medium. Cells transfected with mammalian GluA2 cDNA (plasmid vector described above) were returned to an incubator at 37 °C for 24–48 hours and cells transfected with Epsilon GluE1αA were incubated at 28 °C for 48–72 hours. In cells co-transfected with TARP-γ2, 30 μM NBQX was included in the medium to minimize AMPAR/auxiliary-induced cytotoxicity. All constructs were co-transfected with a plasmid encoding enhanced green fluorescent protein (eGFP) to identify transfected cells. Electrophysiology responses were recorded from outside-out patches excised from transfected cells. Recording pipettes were composed of borosilicate glass (3 to 6 megaohm, King Precision Glass) coated with dental wax to reduce electrical noise. All recordings were performed using Axopatch 200B amplifier (Molecular Devices, LLC). Current records were filtered at 5 or 10 kHz and sampled at 25–50 kHz. Series resistance (3 to 12 megaohms) was compensated by 95%. Recordings were performed at a range of holding potentials from −100 mV to 100 mV to study polyamine block. Data was acquired using pClamp9 software (Molecular Devices, LLC). All experiments were performed at room temperature. All chemicals were purchased from Sigma-Aldrich, unless otherwise indicated. External solution contained (in mM): 150 NaCl, 5 HEPES, 0.1 CaCl2, 0.1 MgCl, and […], pH 7.3–7.4. […] The osmotic pressure of all solutions was adjusted to 295 to 300 mOsm with sucrose. […] Stocks were thawed on the day of the experiment and used to prepared agonist-containing external solutions. Raw data for all electrophysiology experiments are provided in Supplementary Data 3. Current-voltage (I-V) relationships were fit using Origin 7 (OriginLab) using a ninth order polynomial function to estimate the reversal potential (Vrev).
Agonist-evoked membrane conductance (G) was calculated using the following equation: G=I/(V−Vrev)
Conductance-voltage (G-V) relationships were fit using Origin 7 (OriginLab) with the single permeant blocker model as done previously[46]: G=Gmax/1+[Spm]/Kd Where Gmax is the maximal conductance, [Spm] is the internal Spm concentration, and Kd is the dissociation constant.
Kd is defined as: Kd=koff+kperm/kon=sumofexitrates/bindingrate
And redefined as: Kd=g*exp(V/h)+L*exp(V/k) Where h and k are voltage dependencies of g and L, respectively, and at 0 mV: g=koff/konandL=kperm/kon

GluE1αA D646A = conditions: single recordings c1-c7, AVG c8
Text: To further elucidate the nature of internal polyamine block in GluE1αA, we performed outside-out membrane patch clamp experiments in wildtype and mutant channels. […] Current-voltage (I-V) relationships were converted to conductance-voltage (G-V) plots and fit with a single permeant blocker model to estimate both the dissociation constant for Spm at 0 mV (Kd(0mV)) and the voltage dependency of block, as previously described[46],[47].
as §1
Agonist-evoked membrane conductance (G) was calculated using the following equation: G=I/(V−Vrev) […]

GluE1αA S642Q plus D646A = assay type: cell-based, Trichoplax adhaerens; conditions: […]; for normalized conductance (G-V, Figure 5g), Avg: Na vs Na; for I-V current, Na vs Na, Avg of recordings: Figure 5b
[1] = molecular target: T2, human GluA2 receptor (wildtype) (Homo sapiens, UniProt P42262); assay type: cell-based; conditions: for normalized conductance (G-V, Figure 5g), Avg: Na vs Na
T2 construct: host or cells: CHO-K1
T2 sequence (P42262 25-883): as the sequence (P42262 25-883 Q607S) above, with S583Q counted along it

[2] = GluA2 Q670S, 10 mV, single recordings and AVG
[3] = GluA2 Q670S, 20 mV, single recordings and AVG
[4] = GluA2 Q670S, 30 mV, single recordings and AVG
[5] = GluA2 Q670S, 40 mV, single recordings and AVG
[6] = GluA2 Q670S, 50 mV, single recordings and AVG
[7] = GluA2 Q670S, 60 mV, single recordings and AVG
[8] = GluA2 Q670S, 70 mV, single recordings and AVG
[9] = GluA2 Q670S, 80 mV, single recordings and AVG
[10] = GluA2 Q670S, 90 mV, single recordings and AVG
[11] = GluA2 Q670S, 100 mV, single recordings and AVG
[12] = GluA2 Q670S, -100 mV, single recordings and AVG

SMILES: NCCCNCCCCNCCCN [spermine]
- Normalized current (Inorm) (GluA2 Q607S): -0.0262
- h, voltage dependency of block onset (GluA2 Q607S; GluA2 Q607S): −14.0 ± 2.3 mV
- k, voltage dependency of block relief (GluA2 Q607S; GluA2 Q607S): 164.4 ± 31.1 mV
- Kd (GluA2 Q607S; GluA2 Q607S, 30 µM internal Spm, 10 mM glutamate, read-out: Kd(0mV)): 36.2 ± 6.7 µM
- Normalized conductance (Gnorm) (GluA2 Q607S; GluA2 Q670S, 0 mV, single recording): 0.58
- Normalized conductance (Gnorm) (GluA2 Q607S; [2]): 0.61 and 0.49 and 0.58 and 0.59 and 0.57
- Normalized current (Inorm) (GluA2 Q607S; [2]): 0.0362 and 0.03 and 0.04 and 0.0351 and 0.0359
- Normalized conductance (Gnorm) (GluA2 Q607S; [3]): 0.63 and 0.50 and 0.57 and 0.64 and 0.59
- Normalized current (Inorm) (GluA2 Q607S; [3]): 0.095 and 0.09 and 0.10 and 0.11
- Normalized conductance (Gnorm) (GluA2 Q607S; [4]): 0.65 and 0.52 and 0.57 and 0.61 and 0.59
- Normalized current (Inorm) (GluA2 Q607S; [4]): 0.16 and 0.15 and 0.17
- Normalized conductance (Gnorm) (GluA2 Q607S; [5]): 0.67 and 0.55 and 0.57 and 0.65 and 0.61
- Normalized current (Inorm) (GluA2 Q607S; [5]): 0.23 and 0.22 and 0.25
- Normalized conductance (Gnorm) (GluA2 Q607S; [6]): 0.68 and 0.55 and 0.59 and 0.63
- Normalized current (Inorm) (GluA2 Q607S; [6]): 0.29 and 0.28 and 0.33 and 0.30
- Normalized conductance (Gnorm) (GluA2 Q607S; [7]): 0.74 and 0.61 and 0.65 and 0.67
- Normalized current (Inorm) (GluA2 Q607S; [7]): 0.39 and 0.36 and 0.38
- Normalized conductance (Gnorm) (GluA2 Q607S; [8]): 0.69 and 0.61 and 0.66
- Normalized current (Inorm) (GluA2 Q607S; [8]): 0.43 and 0.41 and 0.48 and 0.44
- Normalized conductance (Gnorm) (GluA2 Q607S; [9]): 0.72 and 0.65 and 0.71 and 0.69
- Normalized current (Inorm) (GluA2 Q607S; [9]): 0.51 and 0.57 and 0.53
- Normalized conductance (Gnorm) (GluA2 Q607S; [10]): 0.70 and 0.62 and 0.71 and 0.68
- Normalized current (Inorm) (GluA2 Q607S; [10]): 0.56 and 0.55 and 0.64 and 0.59
- Normalized conductance (Gnorm) (GluA2 Q607S; [11]): 0.72 and 0.65 and 0.76 and 0.71
- Normalized current (Inorm) (GluA2 Q607S; [11]): 0.65 and 0.77 and 0.69
- Normalized conductance (Gnorm) (GluA2 Q607S; GluA2 Q670S, -10 mV, single recordings and AVG): 0.58 and 0.48 and 0.57 and 0.51 and 0.53
- Normalized conductance (Gnorm) (GluA2 Q607S; GluA2 Q670S, -20 mV, single recordings and AVG): 0.55 and 0.46 and 0.51 and 0.49 and 0.50
- Normalized conductance (Gnorm) (GluA2 Q607S; GluA2 Q670S, -30 mV, single recordings and AVG): 0.54 and 0.46 and 0.52 and 0.50
- Normalized conductance (Gnorm) (GluA2 Q607S; GluA2 Q670S, -40 mV, single recordings and AVG): 0.55 and 0.48 and 0.52 and 0.45 and 0.50
- Normalized conductance (Gnorm) (GluA2 Q607S; GluA2 Q670S, -50 mV, single recordings and AVG): 0.57 and 0.50 and 0.52 and 0.49
- Normalized conductance (Gnorm) (GluA2 Q607S; GluA2 Q670S, -60 mV, single recordings and AVG): 0.64 and 0.55 and 0.54 and 0.56 and 0.57
- Normalized conductance (Gnorm) (GluA2 Q607S; GluA2 Q670S, -70 mV, single recordings and AVG): 0.72 and 0.61 and 0.64
- Normalized conductance (Gnorm) (GluA2 Q607S; GluA2 Q670S, -80 mV, single recordings and AVG): 0.81 and 0.68 and 0.75 and 0.67 and 0.73
- Normalized conductance (Gnorm) (GluA2 Q607S; GluA2 Q670S, -90 mV, single recordings and AVG): 0.92 and 0.76 and 0.83 and 0.81
- Normalized conductance (Gnorm) (GluA2 Q607S; [12]): 0.86 and 0.95 and 0.90
- Normalized current (Inorm) (GluA2 Q607S; [12]): -1.00
- Normalized current (Inorm) (GluE1αA D646A; 20 mV): 0.12 and 0.10 and 0.11
- Normalized current (Inorm) (GluE1αA D646A; 30 mV): 0.18 and 0.16 and 0.19
- Normalized conductance (Gnorm) (GluE1αA D646A; -100 mV): 1.00
- Normalized current (Inorm) (GluE1αA D646A; -100 mV): -1.00

SMILES: [Na+] [Na]
- normalized conductance (G-V, Figure 5g), Avg (GluE1αA S642Q plus D646A; Vm 0.00): 0.77
- normalized conductance (G-V, Figure 5g), Avg (GluE1αA S642Q plus D646A; Vm 20.00): 0.75
- normalized conductance (G-V, Figure 5g), Avg (GluE1αA S642Q plus D646A; Vm 40.00): 0.71
- normalized conductance (G-V, Figure 5g), Avg (GluE1αA S642Q plus D646A; Vm 60.00): 0.70
- normalized conductance (G-V, Figure 5g), Avg (GluE1αA S642Q plus D646A; Vm 80.00): 0.74
- normalized conductance (G-V, Figure 5g), Avg (GluE1αA S642Q plus D646A; Vm -20.00): 0.79
- normalized conductance (G-V, Figure 5g), Avg (GluE1αA S642Q plus D646A; Vm -40.00): 0.87
- normalized conductance (G-V, Figure 5g), Avg (GluE1αA S642Q plus D646A; Vm -60.00): 0.95
- normalized conductance (G-V, Figure 5g), Avg (GluE1αA S642Q plus D646A; Vm -80.00): 1.00
- I-V current, Na vs Na, Avg of recordings (GluE1αA S642Q plus D646A; Vm 0.00): -0.02
- I-V current, Na vs Na, Avg of recordings (GluE1αA S642Q plus D646A; Vm 20.00): 0.15
- I-V current, Na vs Na, Avg of recordings (GluE1αA S642Q plus D646A; Vm 40.00): 0.31
- I-V current, Na vs Na, Avg of recordings (GluE1αA S642Q plus D646A; Vm 60.00): 0.47
- I-V current, Na vs Na, Avg of recordings (GluE1αA S642Q plus D646A; Vm 80.00): 0.63
- I-V current, Na vs Na, Avg of recordings (GluE1αA S642Q plus D646A; Vm -20.00): -0.18
- I-V current, Na vs Na, Avg of recordings (GluE1αA S642Q plus D646A; Vm -40.00): -0.37
- I-V current, Na vs Na, Avg of recordings (GluE1αA S642Q plus D646A; Vm -60.00): -0.57
- I-V current, Na vs Na, Avg of recordings (GluE1αA S642Q plus D646A; Vm -80.00): -0.76
- normalized conductance (G-V, Figure 5g), Avg ([1]; Vm 0.00): 0.0219
- normalized conductance (G-V, Figure 5g), Avg ([1]; Vm 20.00): 0.0142
- normalized conductance (G-V, Figure 5g), Avg ([1]; Vm 40.00): 0.0218
- normalized conductance (G-V, Figure 5g), Avg ([1]; Vm 60.00): 0.11
- normalized conductance (G-V, Figure 5g), Avg ([1]; Vm 80.00): 0.29
- normalized conductance (G-V, Figure 5g), Avg ([1]; Vm -20.00): 0.10
- normalized conductance (G-V, Figure 5g), Avg ([1]; Vm -40.00): 0.41
- normalized conductance (G-V, Figure 5g), Avg ([1]; Vm -60.00): 0.86
- normalized conductance (G-V, Figure 5g), Avg ([1]; Vm -80.00): 1.00
- I-V current, Na vs Na, Avg of recordings ([1]; Vm 0.00, Figure 5b): -0.00449
- I-V current, Na vs Na, Avg of recordings ([1]; Vm 20.00, Figure 5b): 0.00351
- I-V current, Na vs Na, Avg of recordings ([1]; Vm 40.00, Figure 5b): 0.00517
- I-V current, Na vs Na, Avg of recordings ([1]; Vm 60.00, Figure 5b): 0.02
- I-V current, Na vs Na, Avg of recordings ([1]; Vm 80.00, Figure 5b): 0.08
- I-V current, Na vs Na, Avg of recordings ([1]; Vm -20.00, Figure 5b): -0.0114
- I-V current, Na vs Na, Avg of recordings ([1]; Vm -40.00, Figure 5b): -0.0751
- I-V current, Na vs Na, Avg of recordings ([1]; Vm -60.00, Figure 5b): -0.30
- I-V current, Na vs Na, Avg of recordings ([1]; Vm -80.00, Figure 5b): -0.69
